Experimental data published in publication PMC6838683, “Discovery of Human Signaling Systems: Pairing Peptides to G Protein-Coupled Receptors” (Cell, 2019).
Each block holds one compound with its values, some of them ahead of it. Residues, ends and D or L forms follow the SMILES beside them. No end group written: not given here.

Assays:
[1] = biological target: T1, OPRK1 (Homo sapiens, UniProt P41145); experiment: β-arrestin recruitment (Tango), known peptide receptors; type: cell-based; conditions: mean
T1 construct: host or cells: HTLA cells (HEK293-derived)

[2] = biological target: T2, BB3 (Homo sapiens, UniProt P32247); experiment: Dynamic mass redistribution (DMR), concentration-response; type: cell-based
T2 construct: hIL-2Ra signal peptide (N); expressed in transfected cells
T2 sequence (P32247 2-399 limits assumed): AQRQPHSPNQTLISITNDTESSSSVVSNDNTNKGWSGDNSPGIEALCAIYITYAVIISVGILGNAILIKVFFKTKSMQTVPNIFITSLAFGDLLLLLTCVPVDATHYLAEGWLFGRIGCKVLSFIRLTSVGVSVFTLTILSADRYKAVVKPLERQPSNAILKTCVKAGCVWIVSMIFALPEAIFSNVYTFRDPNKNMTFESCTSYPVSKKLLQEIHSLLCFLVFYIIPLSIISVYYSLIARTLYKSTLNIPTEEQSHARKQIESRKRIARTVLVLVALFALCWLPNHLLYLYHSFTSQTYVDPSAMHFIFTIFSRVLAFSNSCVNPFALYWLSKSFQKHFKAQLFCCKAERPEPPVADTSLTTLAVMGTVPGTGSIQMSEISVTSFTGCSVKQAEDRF

[3] = system: 120 GPCR targets, including all available orphan receptors and 27 known class A peptide receptors; experiment: Peptide library screen, β-arrestin recruitment (Tango, fold change, 10 μM); type: cell-based, human; conditions: repeat hitters of the peptide library screen; the value names the known receptor(s) confirmed in the β-arrestin recruitment (Tango) screen
Outline: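 HTLA cells (HEK293 with tTA-dependent luciferase and β-arrestin2-TEV) transiently transfected with Tango GPCR constructs, then stimulated overnight with 10 μM peptides in 1% dFBS medium. Luciferase luminescence read after 15–20 min Bright-Glo incubation at room temperature.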

[4] = biological target: T2, BB3; experiment: IP1 accumulation (Gq/11), HTRF; type: cell-based; conditions: BB3, mean, SEM and n
[5] = biological target: T2, BB3; experiment: Real-time receptor internalization (TR-FRET), concentration-response; type: cell-based
[6] = biological target: T3, BB3 (Homo sapiens, UniProt P32247); experiment: β-arrestin recruitment (Tango), validation; type: cell-based
T3 construct: host or cells: HTLA cells (HEK293-derived)
T3 sequence (P32247 1-399): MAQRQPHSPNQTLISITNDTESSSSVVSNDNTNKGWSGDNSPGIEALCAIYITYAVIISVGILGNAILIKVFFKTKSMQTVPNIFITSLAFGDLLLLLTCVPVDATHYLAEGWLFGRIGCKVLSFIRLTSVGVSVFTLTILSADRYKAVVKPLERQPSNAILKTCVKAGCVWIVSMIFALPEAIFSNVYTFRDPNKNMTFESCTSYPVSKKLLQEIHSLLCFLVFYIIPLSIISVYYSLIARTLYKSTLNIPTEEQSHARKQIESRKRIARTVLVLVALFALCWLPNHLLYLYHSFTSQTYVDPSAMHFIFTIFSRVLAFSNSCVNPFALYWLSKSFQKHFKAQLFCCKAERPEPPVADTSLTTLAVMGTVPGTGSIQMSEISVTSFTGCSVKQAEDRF
Description: (§1) The peptide library was additionally screened against 120 GPCR targets in parallel, including all available orphan receptors and 27 known class A peptide receptors using the Tango assay platform ([Kroeze et al., 2015]). Briefly, HTLA cells (a HEK293 cell line stably expressing a tTA-dependent luciferase reporter and a β-arrestin2-TEV fusion gene) were plated 10,000 cells/well in poly-L-lysine–coated clear-bottom white 384-well plates in DMEM supplemented with 10% FBS, 100 U/ml penicillin and 100 μg/ml streptomycin, 2 μg/ml puromycin and 100 μg/ml hygromycin B. 24 hr later, cells were transfected with Tango GPCR constructs using the calcium phosphate method ([Jordan et al., 1996]). The next day, culture medium was changed to DMEM + 1% dFBS and 10 μM peptides were added for overnight stimulation. Bright-Glo solution (Promega) was incubated for 15–20 min at room temperature, and luminescence was counted using a Trilux luminescence counter (Wallac).
(§2) For subsequent peptide validation experiments using Tango assays, HTLA cells were transiently transfected in 10 cm dishes with the receptor of interest using polyethylenimine (PEI) ([Longo et al., 2013]). After 24 hr, 25,000 cells/well were plated in clear bottom, white-walled 384-well plates. Assays were performed as described above, with luminescence measured using an EnSpire 2300 Multimode plate reader (PerkinElmer). Luminescence counts were exported into Excel and were analyzed using GraphPad Prism 7.

[7] = biological target: T4, GPR15 (Homo sapiens, UniProt P49685); experiment: cAMP inhibition (Gi/o), HTRF with forskolin; type: cell-based; conditions: GPR15L cleavage variants versus peptide 64; Figure 5, Table S7
T4 construct: hIL-2Ra signal peptide (N); expressed in transfected cells
T4 sequence (P49685 2-360 limits assumed): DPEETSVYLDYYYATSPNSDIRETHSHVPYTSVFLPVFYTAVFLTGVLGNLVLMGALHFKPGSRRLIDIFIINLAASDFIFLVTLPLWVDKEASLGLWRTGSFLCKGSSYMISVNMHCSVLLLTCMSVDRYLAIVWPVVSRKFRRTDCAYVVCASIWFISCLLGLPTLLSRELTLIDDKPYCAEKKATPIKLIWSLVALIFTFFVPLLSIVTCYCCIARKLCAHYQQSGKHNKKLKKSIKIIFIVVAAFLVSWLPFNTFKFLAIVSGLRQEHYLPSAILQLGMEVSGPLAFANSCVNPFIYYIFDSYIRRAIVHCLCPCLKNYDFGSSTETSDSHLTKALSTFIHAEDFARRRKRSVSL
Description: Peptide-dependent second messenger responses were measured using commercially available HTRF-based IP1 and cAMP kits (Cisbio) as described previously ([Nørskov-Lauritsen et al., 2014]). Receptor expression was induced for 48 hr with 0.1 μg/ml doxycycline in 10 cm dishes. For IP1 measurements (to measure Gq/11), 2,500 cells/well were mixed with ligands in triplicate wells in low volume white 384-well plates at 37°C for 30 min. For cAMP assays, 2,500 cells/well were added in triplicate wells in white 384-well plates in the absence or presence of 3 μM forskolin (to measure Gs and Gi/o activation respectively). 100 μM IBMX was included to prevent cAMP degradation during 30 min stimulation on a plate shaker at room temperature. For both assays, HTRF was measured using an EnVision 2104 Multimode plate reader (PerkinElmer).

[8] = system: GPR15; experiment: Repeat of proposed literature pairing (mass redistribution and/or internalization); type: cell-based, human; conditions: target GPR15; reported ligand tested on receptor-expressing cell line
[9] = system: GPR15; experiment: Repeat of proposed literature pairing; type: cell-based, human
Excerpt: Supplement mmc7.xlsx, sheet "Hit summary and classification" | column: Priority orphans

[10] = biological target: T5, GPR183 (Homo sapiens, UniProt P32249); experiment: β-arrestin recruitment (Tango), indicative pairing; type: cell-based; conditions: mean, n = 3
T5 construct: host or cells: HTLA cells (HEK293-derived)

[11] = biological target: T6, NPY5 (Homo sapiens, UniProt Q15761); experiment: β-arrestin recruitment (Tango), known peptide receptors; type: cell-based; conditions: NPY5R; Emax and pEC50 n.d.; n = 3
T6 construct: host or cells: HTLA cells (HEK293-derived)
T6 sequence (Q15761 1-445): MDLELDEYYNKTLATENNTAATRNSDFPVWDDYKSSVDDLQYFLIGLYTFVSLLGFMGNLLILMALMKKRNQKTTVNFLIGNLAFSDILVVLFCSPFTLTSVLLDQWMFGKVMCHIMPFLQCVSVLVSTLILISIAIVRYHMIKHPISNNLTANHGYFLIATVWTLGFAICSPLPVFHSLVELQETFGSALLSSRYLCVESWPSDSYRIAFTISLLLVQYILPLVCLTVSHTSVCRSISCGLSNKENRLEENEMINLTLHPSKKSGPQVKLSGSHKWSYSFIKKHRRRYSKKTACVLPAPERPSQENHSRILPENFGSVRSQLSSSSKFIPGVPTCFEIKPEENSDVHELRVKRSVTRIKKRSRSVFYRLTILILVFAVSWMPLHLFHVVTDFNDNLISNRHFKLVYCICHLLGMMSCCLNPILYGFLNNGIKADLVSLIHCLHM
Description: as §1, §2

[12] = biological target: T7, MLNR (Homo sapiens, UniProt O43193); experiment: as above; type: cell-based; conditions: endogenous ligand(s) included in peptide library
T7 construct: host or cells: HTLA cells (HEK293-derived)
Excerpt: (§3) Supplement mmc6.xlsx, sheet "Peptide GPCR controls" | column: Confirmed?

[13] = biological target: T8, GPR161 (Homo sapiens, UniProt Q8N6U8); experiment: β-arrestin recruitment (Tango), indicative pairing; type: cell-based; conditions: mean, n = 3
T8 construct: host or cells: HTLA cells (HEK293-derived)

[14] = system: NPS; experiment: β-arrestin recruitment (Tango), known peptide receptors; type: cell-based, human; conditions: NPS receptor, endogenous ligand(s) included in peptide library
Excerpt: as §3

[15] = system: NTSR1; experiment: as above; type: cell-based, human; conditions: Neurotensin not cyclized
Excerpt: Supplement mmc6.xlsx, sheet "Peptide GPCR controls" | column: Confirmed?; Notes

[16] = system: NTSR2; experiment: as above; type: cell-based, human; conditions: Neurotensin not cyclized
Excerpt: as §3

[17] = system: OPRL1; experiment: as above; type: cell-based, human; conditions: endogenous ligand(s) included in peptide library
Excerpt: as §3

[18] = system: HCTR2; experiment: as above; type: cell-based, human; conditions: endogenous ligand(s) included in peptide library
Excerpt: as §3

[19] = biological target: GPR55 (Homo sapiens, UniProt Q9Y2T6)
[20] = biological target: GPR1 (PathHunter cells) (UniProt P46091)
[21] = biological target: GPR1 (Tango construct) (human) (UniProt P46091)
[22] = biological target: T9, GPR17 (Homo sapiens, UniProt Q13304); experiment: β-arrestin recruitment (Tango), indicative pairing; type: cell-based; conditions: mean, n = 3
T9 construct: host or cells: HTLA cells (HEK293-derived)

[23] = biological target: T10, NOP (OPRL1) (Homo sapiens, UniProt P41146); experiment: β-arrestin recruitment (Tango), known peptide receptors; type: cell-based; conditions: mean, n = 3
T10 construct: host or cells: HTLA cells (HEK293-derived)
Excerpt: Supplement mmc7.xlsx, sheet "Peptide validation data" | column: Emax; pEC50

T5 sequence (P32249 whole entry): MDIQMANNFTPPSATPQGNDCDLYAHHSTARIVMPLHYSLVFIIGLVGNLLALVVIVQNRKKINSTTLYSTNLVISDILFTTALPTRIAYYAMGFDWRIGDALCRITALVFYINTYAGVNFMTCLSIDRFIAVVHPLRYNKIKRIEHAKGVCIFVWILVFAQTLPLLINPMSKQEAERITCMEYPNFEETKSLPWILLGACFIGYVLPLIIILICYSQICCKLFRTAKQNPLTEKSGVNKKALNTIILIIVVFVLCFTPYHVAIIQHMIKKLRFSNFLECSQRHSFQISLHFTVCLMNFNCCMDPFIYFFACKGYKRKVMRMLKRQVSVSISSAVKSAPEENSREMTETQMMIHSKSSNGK
T8 sequence (Q8N6U8 whole entry): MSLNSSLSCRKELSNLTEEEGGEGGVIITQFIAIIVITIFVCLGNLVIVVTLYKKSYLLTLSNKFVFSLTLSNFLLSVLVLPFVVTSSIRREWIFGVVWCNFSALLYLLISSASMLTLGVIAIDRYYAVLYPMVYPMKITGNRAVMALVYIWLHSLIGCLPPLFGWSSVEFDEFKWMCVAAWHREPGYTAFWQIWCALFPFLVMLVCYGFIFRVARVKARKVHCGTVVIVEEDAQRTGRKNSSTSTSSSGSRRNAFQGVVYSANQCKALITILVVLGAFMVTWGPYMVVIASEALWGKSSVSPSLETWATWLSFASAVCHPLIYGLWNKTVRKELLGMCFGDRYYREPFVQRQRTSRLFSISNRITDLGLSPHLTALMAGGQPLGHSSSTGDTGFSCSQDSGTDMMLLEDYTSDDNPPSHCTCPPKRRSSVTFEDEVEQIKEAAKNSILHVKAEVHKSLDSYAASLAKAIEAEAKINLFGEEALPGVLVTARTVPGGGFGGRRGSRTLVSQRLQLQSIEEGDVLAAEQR
T1 sequence (P41145 whole entry): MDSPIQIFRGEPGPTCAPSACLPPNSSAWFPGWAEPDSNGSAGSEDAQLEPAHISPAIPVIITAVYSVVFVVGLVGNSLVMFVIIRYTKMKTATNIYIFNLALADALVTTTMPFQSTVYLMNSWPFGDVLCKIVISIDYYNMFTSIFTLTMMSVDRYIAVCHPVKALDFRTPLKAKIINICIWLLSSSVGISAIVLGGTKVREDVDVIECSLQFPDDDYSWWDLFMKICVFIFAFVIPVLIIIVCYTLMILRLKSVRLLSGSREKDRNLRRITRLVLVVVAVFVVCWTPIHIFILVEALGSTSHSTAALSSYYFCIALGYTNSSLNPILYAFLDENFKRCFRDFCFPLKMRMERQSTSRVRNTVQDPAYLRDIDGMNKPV
T9 sequence (Q13304 whole entry): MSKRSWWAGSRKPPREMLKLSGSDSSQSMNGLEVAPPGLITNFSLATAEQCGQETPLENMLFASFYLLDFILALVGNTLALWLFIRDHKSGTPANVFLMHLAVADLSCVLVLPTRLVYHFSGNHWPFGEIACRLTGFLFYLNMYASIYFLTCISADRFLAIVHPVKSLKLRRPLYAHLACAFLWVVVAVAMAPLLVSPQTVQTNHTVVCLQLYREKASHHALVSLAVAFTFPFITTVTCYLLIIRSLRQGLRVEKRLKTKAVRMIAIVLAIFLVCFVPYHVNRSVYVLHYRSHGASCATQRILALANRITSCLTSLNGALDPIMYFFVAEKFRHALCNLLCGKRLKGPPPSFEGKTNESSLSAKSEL
T10 sequence (P41146 whole entry): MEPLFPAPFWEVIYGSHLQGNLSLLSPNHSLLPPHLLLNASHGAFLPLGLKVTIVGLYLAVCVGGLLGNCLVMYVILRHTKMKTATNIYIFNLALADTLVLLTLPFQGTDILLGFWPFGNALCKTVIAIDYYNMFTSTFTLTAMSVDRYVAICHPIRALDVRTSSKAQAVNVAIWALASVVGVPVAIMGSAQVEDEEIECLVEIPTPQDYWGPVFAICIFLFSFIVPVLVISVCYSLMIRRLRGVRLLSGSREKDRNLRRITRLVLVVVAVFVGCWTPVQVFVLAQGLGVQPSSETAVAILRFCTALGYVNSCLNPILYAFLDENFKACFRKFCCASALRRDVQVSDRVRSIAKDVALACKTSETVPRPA
Sequence of GPR1 (Tango construct) (human) (P46091 whole entry): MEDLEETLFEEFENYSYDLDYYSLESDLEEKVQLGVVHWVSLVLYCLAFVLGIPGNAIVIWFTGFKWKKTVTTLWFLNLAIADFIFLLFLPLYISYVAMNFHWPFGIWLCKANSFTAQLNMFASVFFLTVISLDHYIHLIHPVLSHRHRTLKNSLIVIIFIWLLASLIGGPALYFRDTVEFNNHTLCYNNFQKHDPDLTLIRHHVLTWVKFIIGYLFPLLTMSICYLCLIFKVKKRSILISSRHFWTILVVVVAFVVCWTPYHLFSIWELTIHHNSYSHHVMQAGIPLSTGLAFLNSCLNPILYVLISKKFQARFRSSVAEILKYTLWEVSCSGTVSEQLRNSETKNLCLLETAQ
Sequence of GPR1 (PathHunter cells) (P46091 whole entry): as above
T7 sequence (O43193 whole entry): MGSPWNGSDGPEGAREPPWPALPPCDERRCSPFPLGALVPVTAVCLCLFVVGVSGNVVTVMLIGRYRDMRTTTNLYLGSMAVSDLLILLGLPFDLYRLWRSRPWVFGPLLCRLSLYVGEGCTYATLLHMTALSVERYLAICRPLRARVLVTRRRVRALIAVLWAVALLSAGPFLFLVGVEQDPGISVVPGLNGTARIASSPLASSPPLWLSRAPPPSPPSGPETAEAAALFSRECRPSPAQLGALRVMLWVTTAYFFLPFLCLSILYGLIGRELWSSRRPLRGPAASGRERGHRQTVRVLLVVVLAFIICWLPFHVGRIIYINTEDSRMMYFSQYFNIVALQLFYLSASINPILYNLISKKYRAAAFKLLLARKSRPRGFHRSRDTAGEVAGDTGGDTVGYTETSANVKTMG
Sequence of GPR55 (Q9Y2T6 whole entry): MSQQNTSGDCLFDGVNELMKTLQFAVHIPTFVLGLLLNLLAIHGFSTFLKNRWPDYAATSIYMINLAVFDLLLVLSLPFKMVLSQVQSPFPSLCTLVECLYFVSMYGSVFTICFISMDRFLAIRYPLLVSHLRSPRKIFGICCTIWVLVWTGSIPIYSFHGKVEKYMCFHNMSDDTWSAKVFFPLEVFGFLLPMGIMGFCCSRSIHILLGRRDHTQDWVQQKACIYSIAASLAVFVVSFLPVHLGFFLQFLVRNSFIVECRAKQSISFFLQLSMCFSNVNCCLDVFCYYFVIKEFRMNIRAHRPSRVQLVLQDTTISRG

Compound: CSCC[C@H](NC(=O)[C@H](Cc1ccccc1)NC(=O)CNC(=O)CNC(=O)[C@@H](N)Cc1ccc(O)cc1)C(=O)N[C@@H](CCCNC(=N)N)C(=O)N[C@@H](CCCNC(=N)N)C(=O)N[C@H](C(=O)NCC(=O)N[C@@H](CCCNC(=N)N)C(=O)N1CCC[C@H]1C(=O)N[C@@H](CCC(=O)O)C(=O)N[C@@H](Cc1c[nH]c2ccccc12)C(=O)N[C@@H](Cc1c[nH]c2ccccc12)C(=O)N[C@@H](CCSC)C(=O)N[C@@H](CC(=O)O)C(=O)N[C@@H](Cc1ccc(O)cc1)C(=O)N[C@@H](CCC(N)=O)C(=O)N[C@@H](CCCCN)C(=O)N[C@@H](CCCNC(=N)N)C(=O)N[C@@H](Cc1ccc(O)cc1)C(=O)NCC(=O)NCC(=O)N[C@@H](Cc1ccccc1)C(=O)N[C@@H](CC(C)C)C(=O)O)C(C)C [Peptide 158, Peptide E] (H-YGGFMRRVGRPEWWMDYQKRYGGFL-OH)
Emax, Tango (fold over basal) ([1]; n = 3): 5.0 fold over basal
EC50 ([1]; n = 3, read-out: pEC50, Tango (fold over basal) (converted)): 1.35 µM
EC50 [2]: > 10 µM
EC50 ([2]; pEC50, DMR (peak), BB3, mean, SEM and n): 72.4 µM
Confirmation of known target in Tango [3]: kappa, mu
Emax, IP1 [4]: 164.0 nM
EC50 ([4]; pEC50, IP1 (nM)): 6760 nM
Emax, Internalization (AUC) [5]: 16.0
EC50 ([6]; BB3, mean, SEM and n, read-out: pEC50, Tango (fold over basal) (converted)): 93.3 µM
EC50 ([6]; HTLA cells transiently transfected, overnight stimulation, luciferase, mean ± SEM of 3-4 independent experiments in triplicate, read-out: pEC50, β-arrestin recruitment (Tango), BB3 (converted)): > 10 µM

fold improved potency over the 11-amino acid peptide at GPR15 [7]: 100 fold
Peptide pairing for orphan receptor GPR15 (confirmed/unconfirmed) [9]: Confirmed peptide pairings for orphans
Compound: GPR15L: longest 57-residue cleavage variant of C10orf99 with two intramolecular disulfide bridges (KRRPAKAWSGRRTRLCCHRVPSPNSTNLKGHHVRLCKPCKLEPEPRLWVVPGALPQV; disulfide (positions not given here))
Active in DMR/internalization [8]: Yes

Emax, Tango (fold over basal) [10]: 1.7 fold over basal
pEC50, Tango (fold over basal) [10]: 8.61
Comment, Tango (fold over basal) [11]: Response >1uM; part of QRFP43
Compound: KGGFSFRF [Peptide 31]

Confirmed? (confirmation of b-arrestin recruitment) [12]: Yes
Compound: Motilin

Emax, Tango (fold over basal) [13]: 1.4 fold over basal
pEC50, Tango (fold over basal) [13]: 6.57
Compound: NWTPQAMLYLKGAQ [Peptide 95]

Confirmed? (confirmation of b-arrestin recruitment) [14]: No
Compound: Neuropeptide S (SFRNGVGTGMKKTSFQRAKS)

Confirmed? (confirmation of b-arrestin recruitment) ([15]; Tango): Yes
Confirmed? (confirmation of b-arrestin recruitment) [16]: No
Compound: Neurotensin
Notes (b-arrestin recruitment response) ([15]; validation): Neurotensin not cyclized; weak activation in validation

Compound: Nociceptin/orphanin FQ
Confirmed? (confirmation of b-arrestin recruitment) [17]: Yes

Confirmed? (confirmation of b-arrestin recruitment) [18]: Yes
Compound: Orexin-B

pEC50 at GPR55 (internalization or mass redistribution; assay not given) [19]: 9.51 pEC50
Compound: PACAP27 (peptide)

pEC50 in PathHunter β-arrestin recruitment assay [20]: 6.18 pEC50
pEC50 in Tango β-arrestin recruitment assay [21]: 5.6 pEC50
Compound: Peptide 141 (Osteocrin_(-2-19))

Emax, Tango (fold over basal) [22]: 1.3 fold over basal
pEC50, Tango (fold over basal) [22]: 9.08
Compound: RHVNHSATEALGELRERAPGQGTNGFQLLRHAV [Peptide 192]

Compound: TLGPQAHSLALQSVDLLFRP [Peptide 132]
Emax, Tango (fold over basal) [23]: 8.8 fold over basal
pEC50, Tango (fold over basal) [23]: 4.82
